Experimental findings from patent US10011573B2, “Human androgen receptor DNA-binding domain (DBD) compounds as therapeutics and methods for their use” (The University of British Columbia, priority 2014, dated 2018) are described below.

By IC50 is commonly meant the concentration that gives 50% inhibition. High values mean lower potency, low ones higher potency.

Molecules are shown by their SMILES. Read-outs that look alike come from different tables or passages of the source.

The target in assay [1] is T1, YFP-AR (Homo sapiens, UniProt P10275).
T1 construct: plasmids encoding YFP-tagged full-length AR (yellow fluorescent protein, YFP-AR); expressed in transfected cells; host or cells: PC3
T1 sequence (P10275 1-920): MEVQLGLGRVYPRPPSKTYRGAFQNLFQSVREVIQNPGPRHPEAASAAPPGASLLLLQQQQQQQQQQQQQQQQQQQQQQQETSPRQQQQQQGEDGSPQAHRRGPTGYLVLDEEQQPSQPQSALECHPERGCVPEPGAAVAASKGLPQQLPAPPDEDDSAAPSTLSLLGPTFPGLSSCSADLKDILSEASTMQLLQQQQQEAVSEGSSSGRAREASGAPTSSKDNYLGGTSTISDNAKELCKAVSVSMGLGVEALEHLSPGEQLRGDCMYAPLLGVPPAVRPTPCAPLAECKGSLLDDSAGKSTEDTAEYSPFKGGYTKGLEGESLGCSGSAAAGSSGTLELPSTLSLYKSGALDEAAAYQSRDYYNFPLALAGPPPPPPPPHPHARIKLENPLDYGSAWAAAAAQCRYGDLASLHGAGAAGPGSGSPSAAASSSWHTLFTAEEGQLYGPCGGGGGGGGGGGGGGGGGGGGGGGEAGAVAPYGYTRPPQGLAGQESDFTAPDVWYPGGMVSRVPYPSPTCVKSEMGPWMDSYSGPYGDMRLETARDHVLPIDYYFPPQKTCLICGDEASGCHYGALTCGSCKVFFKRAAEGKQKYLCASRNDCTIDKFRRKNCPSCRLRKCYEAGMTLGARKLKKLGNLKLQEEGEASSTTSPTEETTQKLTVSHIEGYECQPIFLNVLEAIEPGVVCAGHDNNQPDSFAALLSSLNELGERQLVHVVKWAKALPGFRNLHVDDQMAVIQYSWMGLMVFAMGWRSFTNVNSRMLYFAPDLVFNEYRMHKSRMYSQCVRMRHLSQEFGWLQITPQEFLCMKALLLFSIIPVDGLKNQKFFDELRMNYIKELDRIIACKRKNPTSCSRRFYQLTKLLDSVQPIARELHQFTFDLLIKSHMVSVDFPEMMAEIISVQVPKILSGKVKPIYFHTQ
As to the kind of experiment: Confocal microscopy of YFP-AR nuclear localization in PC3 cells. The format is cell-based. How it is done:
Transfection of YFP-AR or YFP-V7 plasmids (100 ng per well) was performed using TT20 (3 μl) for 48 h. […] After aspiration of the media, cells were washed once with PBS and fixed in 4% paraformaldehyde overnight at 4° C., followed by mounting on charged cover slides using DAPI mount (Vector Laboratories).

Assay [2] concerns the target T2, YFP-V7 (Homo sapiens, UniProt P10275).
T2 construct: expressed in transfected cells; host or cells: PC3
In words: Luciferase assay with YFP-V7 in PC3 cells. The format is cell-based. The text has this: the underlined primer sections anneal to the specified template, although their 5′-extensions (italicized) are complementary to the corresponding primer sequence of the other PCR. Plasmid assembly is achieved by mixing the PCR products from each reaction (Klock, H. E. et al. (2008) Combining the polymerase incomplete primer extension method for cloning and mutagenesis with microscreening to accelerate structural genomics efforts. Proteins 71, 982-994), followed by transformation into chemically competent bacteria. A similar strategy was used to clone the AR-DBD+hinge into the Pan4 vector (avidity) expressing the N-terminal biotinylation sequence ([…] ) and C-terminal His tag. YFP-AR plasmid was a gift from Dr. Jan Trapman (van Royen, M. E. et al. (2012) Stepwise androgen receptor dimerization. J. Cell Sci. 125, 1970-1979) and is based on pEYFP-C1 (Clontech™). YFP-V7 was constructed by polymerase incomplete primer extension method using the following primers and templates: AR-V7 insert from pcDNA3. AR-V7 template

For assay [3], the target named is T3, full-length human AR (Homo sapiens, UniProt P10275).
T3 construct: expressed in transfected cells; host or cells: PC3 (AR-negative human prostate cancer cells)
T3 sequence (P10275 1-920): T1 sequence (P10275 1-920)
In words: ARR3tk-luciferase reporter assay in PC3 cells, wild-type AR. Type of assay: cell-based. To be noted: transient AR, R1881. The protocol:
9. Transient Transfection: The PC3/MCF7 cells were seeded into a 96-well plate (2,000 cells/well). After 24 hrs, the wild-type AR (50 ng/well)/AR mutants and AR3TK-luciferase plasmids (1:3) were co-transfected into PC3 cells or ERE-luciferase (50 ng/well) was transfected into MCF7 cells using transfection reagent TT20. 24 hrs after the transfection, the cells were treated with the compounds at various concentrations. And 24 hrs later, the cells were lysed and the reading was taken using a luminometer.

For assay [4], the target named is AR Y594A mutant (Homo sapiens, UniProt P10275, Y594A). In words: ARR3tk-luciferase reporter assay in PC3 cells, AR Y594A. For orientation: A reporter such as luciferase makes a cellular process visible.
Experimental: (§2) Cells were then treated with compounds at various concentrations and 0.1 nMR1881 (in 100% ethanol) for 24 h. […] Cell lysis was carried out with 60 μl of 1X passive lysis buffer/well (Promega™)
(§3) 20 μl of cell lysate from each well were mixed with 50 μl of luciferase assay reagent (Promega™), and luminescence was recorded on a TECAN™ M200pro plate reader. Luciferase assays with splice variant AR were performed the same way but with only 5 ng of pcDNA3.1 AR-V7 (to limit the high level of AR-V7 expression) and no R1881.
Assay [5] has as its target AR-V7Y594D (Homo sapiens, UniProt P10275, Y594D). In words: ARR3tk-luciferase reporter assay in PC3 cells, AR-V7 Y594D.
Experimental: as §2, §3
For assay [6], the system named is FKBP5. As to the kind of experiment: Western blot FKBP5 protein in R1-D567 cells. The format is cell-based, human. How it is done:
(§1) Cell lysates (40 μl) from luciferase assays (96-well plate) were separated on a 10% SDS-polyacrylamide mini gel. Protein was transferred to methanol-charged PVDF membranes and probed with anti-AR441 (mouse, Sigma™) monoclonal primary antibody. Blots were also probed with polyclonal anti-actin (rabbit, Sigma™) to show equal loading and polyclonal anti-PARP/anti-cleaved PARP (rabbit, Sigma™) to test for induction of apoptosis. Lysates from CWR-R1 cells were additionally probed with polyclonal anti-FKBP5 (rabbit, Sigma™) following 2 days of incubation with compounds.

Assay [7] concerns AR v567es. In words: ARR3tk-luciferase assay in R1-D567 cells. Type of assay: cell-based, human.
Assay [8] deals with endogenous wild type AR. In words: ARR3tk-luciferase assay in R1-AD1 cells. The format is cell-based, human.
Assay [9] deals with FKBP5. As to the kind of experiment: Western blot FKBP5 protein in R1-AD1 cells. The format is cell-based, human. The protocol: as §1
On the technique in general: A western blot detects proteins with antibodies after separation by electrophoresis.

Assay [10] relates to PSA. In words: Prostate-specific antigen (PSA) assay, secreted PSA from the eGFP assay plates. The following applies: Homo sapiens. The format is cell-based, human. How it is done:
3. Prostate-specific antigen (PSA) assay: The evaluation of PSA levels secreted into the media was performed in parallel to the eGFP assay using the same plates. After cells were incubated for 3 days, 150 μl of the media was taken from each well, and added to 150 μl of PBS.

The target in assay [11] is AR Q592A mutant (Homo sapiens, UniProt P10275, Q592A). As to the kind of experiment: ARR3tk-luciferase reporter assay in PC3 cells, AR Q592A.
Experimental: as §2, §3
The mark [12] stands for this setting: LNCaP eGFP cells, R1881, secreted PSA.

T2 sequence (P10275 1-644 isoform P10275-3): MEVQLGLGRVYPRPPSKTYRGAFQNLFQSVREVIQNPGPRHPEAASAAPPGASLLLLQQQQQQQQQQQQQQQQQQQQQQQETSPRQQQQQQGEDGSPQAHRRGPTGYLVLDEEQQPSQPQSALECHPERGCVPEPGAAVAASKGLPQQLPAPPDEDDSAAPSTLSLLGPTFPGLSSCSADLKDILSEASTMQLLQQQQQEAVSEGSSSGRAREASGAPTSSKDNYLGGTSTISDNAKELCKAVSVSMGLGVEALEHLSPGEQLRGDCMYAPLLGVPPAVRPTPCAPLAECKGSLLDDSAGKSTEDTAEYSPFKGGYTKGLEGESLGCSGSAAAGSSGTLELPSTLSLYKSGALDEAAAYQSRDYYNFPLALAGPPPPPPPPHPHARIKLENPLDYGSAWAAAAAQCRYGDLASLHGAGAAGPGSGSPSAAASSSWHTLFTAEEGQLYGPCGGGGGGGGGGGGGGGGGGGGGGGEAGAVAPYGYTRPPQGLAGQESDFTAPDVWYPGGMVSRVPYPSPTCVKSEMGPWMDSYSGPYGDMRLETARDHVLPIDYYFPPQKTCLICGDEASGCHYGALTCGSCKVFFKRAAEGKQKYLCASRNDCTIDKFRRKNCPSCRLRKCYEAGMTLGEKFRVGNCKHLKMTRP
Chain of AR-V7Y594D (P10275 1-644 isoform P10275-3 Y594D): as the sequence (P10275 1-644 isoform P10275-3) above, with Y594D counted along it
Chain of AR Q592A mutant (P10275 whole entry Q592A): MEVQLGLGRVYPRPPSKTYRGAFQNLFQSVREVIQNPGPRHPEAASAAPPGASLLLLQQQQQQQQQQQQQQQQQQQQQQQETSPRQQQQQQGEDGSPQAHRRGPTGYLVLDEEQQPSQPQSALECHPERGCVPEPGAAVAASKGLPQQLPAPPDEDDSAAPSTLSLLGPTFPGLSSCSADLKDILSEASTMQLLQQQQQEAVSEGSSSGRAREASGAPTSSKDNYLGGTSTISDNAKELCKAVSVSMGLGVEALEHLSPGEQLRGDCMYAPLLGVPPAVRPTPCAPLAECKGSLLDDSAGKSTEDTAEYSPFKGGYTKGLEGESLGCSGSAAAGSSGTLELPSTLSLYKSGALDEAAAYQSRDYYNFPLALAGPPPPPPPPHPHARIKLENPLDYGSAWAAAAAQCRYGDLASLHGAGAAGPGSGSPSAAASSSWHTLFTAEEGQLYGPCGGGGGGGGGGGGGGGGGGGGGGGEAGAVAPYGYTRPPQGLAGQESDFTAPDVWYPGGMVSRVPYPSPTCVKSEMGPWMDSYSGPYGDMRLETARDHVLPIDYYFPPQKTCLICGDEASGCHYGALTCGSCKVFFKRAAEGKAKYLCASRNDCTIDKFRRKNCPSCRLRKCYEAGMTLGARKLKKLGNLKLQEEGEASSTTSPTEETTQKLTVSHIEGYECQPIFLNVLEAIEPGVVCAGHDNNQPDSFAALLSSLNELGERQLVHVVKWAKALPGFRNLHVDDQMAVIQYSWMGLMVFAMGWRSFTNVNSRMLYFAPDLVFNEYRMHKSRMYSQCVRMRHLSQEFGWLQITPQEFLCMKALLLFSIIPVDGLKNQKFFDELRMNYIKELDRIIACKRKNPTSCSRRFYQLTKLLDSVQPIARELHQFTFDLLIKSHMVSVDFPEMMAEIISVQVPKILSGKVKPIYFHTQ
Chain of AR Y594A mutant (P10275 whole entry Y594A): as the sequence (P10275 whole entry Q592A) above, with A592Q, Y594A counted along it

With `c1ccc(-c2csc(N3CCOCC3)n2)cc1` [Compound 14228, 4-(4-phenylthiazol-2-yl)morpholine], the “R1881-stimulated nuclear localization of YFP-AR” value in assay [1] is recorded as “did not prevent R1881-stimulated nuclear localization”. For the same molecule, the “nuclear localization of YFP-AR in the absence of R1881” value in assay [1] is “could not stimulate any nuclear localization”. In [2], the “inhibition of YFP-V7 driven luciferase expression” value is reported as “could be inhibited”. For the same molecule, the 50% inhibitory concentration (IC50) in assay [3] was 2360 nM; in assay [4], 3000 to 6000 nM; in assay [10] (setting [12]), 188 nM; in assay [10] (Series 1), 280 nM; in [11] it was 3000 to 6000 nM. Moreover, in assay [5], the “inhibition of AR-V7Y594D transcriptional activity” value is given as “could not be inhibited”. Further, the “FKBP5 protein expression, R1-D567 cells” value in assay [6] is on record as “reduced”. Besides, in assay [7], the “inhibition of AR v567es transcriptional activity” value is listed as “could inhibit”. In [8], the “inhibition of wild type AR transcriptional activity” value is “could inhibit”. In addition, the “FKBP5 protein expression, R1-AD1 cells” value in assay [9] is on record as “reduced”.

For `Brc1ncn(-c2csc(N3CCOCC3)n2)c1Br` [Compound 14449], the “R1881-stimulated nuclear localization of YFP-AR” value in assay [1] (10 nM R1881, 25 μM compound, 6 h) is listed as “did not prevent R1881-stimulated nuclear localization”. Further, in [1] (25 μM compound), the “nuclear localization of YFP-AR in the absence of R1881” value is recorded as “could not stimulate any nuclear localization”. Moreover, in [2], the “inhibition of YFP-V7 driven luciferase expression” value is given as “could be inhibited”. Moreover, the IC50 in assay [3] was 340 nM; in [4], 3000 to 6000 nM; in [10] (setting [12]) it was 170 nM; in assay [10] (Series 1) it was 170 nM; in assay [11], 3000 to 6000 nM. Besides, the “inhibition of AR-V7Y594D transcriptional activity” value in assay [5] is “could not be inhibited”. In addition, the “FKBP5 protein expression, R1-D567 cells” value in assay [6] is “reduced”. Further, the “inhibition of AR v567es transcriptional activity” value in assay [7] was “could inhibit”. Further, the “inhibition of wild type AR transcriptional activity” value in [8] is listed as “could inhibit”. Moreover, the “FKBP5 protein expression, R1-AD1 cells” value in assay [9] is on record as “reduced”.
